Results published in patent US8349845B2, “Thiazolopyrimidines for use in therapy” (Sosei Group Corporation, priority 2005, dated 2013).

Key:
CCI rats [1] = assay: Single oral dose study, mechanical allodynia (von Frey PWT) in rat chronic constriction injury (CCI) model; type: in vivo; details: 20 mg/kg p.o.; for paw withdrawal threshold (PWT): mean±S.E.M.
Experimental: The rat chronic constriction injury (CCI) model was prepared following the standard protocols (Bennett and Xie, 1988). Briefly, male Sprague-Dawley rats, weighing 150-175 gram at arrival, were anaesthetized with a 5% isofluorane/95% oxygen gas mixture followed by an i.p. injection of sodium pentobarbitone (50 mg/kg). The lateral side of the left hind limb was shaved and sterilized with 75% ethanol. An incision of about 1 cm was made to expose the sciatic nerve. Four loose ligations with 4-0 suture silk were made on the sciatic nerve. The wound was closed in layers with silk suture and the animals were placed in a recovering chamber with the temperature controlled at 30° C. The animals were then returned to their home cage after complete return of consciousness and the return of free movement. A dose of amoxicillin (0.1 ml, 15 mg) was routinely injected intraperitoneally after surgery to prevent infection. In CCI rats, the assessment of paw withdrawal threshold (PWT) in response to the mechanical stimulation started 14 days after surgery. […] The PWT was measured using a series of graduated von Frey hairs. The animals were placed in individual perspex boxes on a raised metal mesh for at least 30 min before the test. Starting from a filament of lower force (1 g), each filament was applied perpendicularly to the centre of the paw pad until it slightly bends for 6 seconds. If the animal withdrew or lifted the paw upon stimulation, then a hair with force immediately lower than that tested would be used. If no response was observed, then a hair with force immediately higher would be used. The lowest amount of force required to induce reliable responses (positive in 3 out of 5 trials) was recorded as the value of PWT. A suspension of Compound 1 was made with 5% DMSO in saline (10 mg/ml). The suspension was sonicated for at least 20 min before application. All data in this study are presented as mean±S.E.M. and are analysed with the student-t-test or one way ANOVA as appropriate. The significance level was set at P<0.05.

CCI rats [2] = assay: Dose-response study, mechanical allodynia (PWT) in CCI model; type: in vivo, rat; details: CCI rats, 1, 3, 10, 30 mg/kg orally, 30-360 min after dosing
Experimental: The methods for preparing CCI animals and assessing mechanical allodynia using von Frey hairs were as described in Example 1. Four doses of Compound 1 (1, 3, 10, 30 mg/kg) were given orally and the PWT was reassessed at 30, 60, 120, 180, 240 and 360 min after dosing.

[3] = system: ectopic discharge in CCI rats; assay: Acute administration, spontaneous ectopic discharge in sural nerve of CCI rats; type: in vivo, rat
Experimental: The preparation of CCI model rats and the assessment of neuropathic pain state were as described for Example 1. The electrophysiological experiments were performed on CCI rats with neuropathic pain states confirmed by von Frey hair testing as previously described. Compound 1 suspension was made in a vehicle containing 1% DMSO, 66% PEG200 and 33% saline to 5 mg/ml. Rats with neuropathic pain were anaesthetized with thiobutabarbital sodium (inactin, 120 mg/kg, i.p. for induction and thereafter 60 mg/kg, i.p. for maintenance, if necessary). The arterial blood pressure and heart rate were routinely monitored and rectal temperature was continuously monitored and maintained at a physiological range using a thermo-blanket system. The skin of the left hind limb was incised and stitched onto a stainless steel “O” ring to form an oil pool. The sural nerve was carefully exposed and repeatedly teased into small bundles containing only one or a few fibres and examined for spontaneous activity. In acute experiments, when an active fibre was found, a period of at least 20 min control recording was obtained. Subsequently, the effects of the vehicle and Compound 1 (5 mg/kg, i.v.) were examined. Activity was monitored for at least 40 minutes following administration of the drug. The frequency of the spontaneous activity was monitored online and analysed offline after experiment. For i.v. injection, Compound 1 suspension (5 mg/ml) was prepared using a vehicle made of 1% DMSO, 66% polyethelene glycol (PEG 200) and 33% normal saline. The suspension was then sonicated for 30 min before administration.

[4] = system: ectopic discharge in CCI rats; assay: Chronic dosing, generation of ectopic discharge and PWT in CCI rats; type: in vivo, rat
Experimental: After confirmation of neuropathic pain state on day 16 post-surgery, the animals (4 for vehicle group and 4 for drug treatment group) were given either vehicle (5% DMSO in saline) or Compound 130 mg/kg p.o., twice a day for 8 days. At the end of the dosing protocol, the PWT was reassessed before the electrophysiological experiment. The sural nerve was repeatedly teased into fine bundles for examination. For a fibre with spontaneous activity, the recording lasted for at least 1 min; for a fiber without obvious spontaneous activity, the recording lasted for at least 30 sec. In each sural nerve, as many fibres as possible were teased and recorded (more than 150 bundles on average in one animal).

CCI rats [5] = assay: Tolerance liability in CCI model (PWT over 7 days of dosing); type: in vivo, rat
Experimental: The preparation of CCI model rats and the assessment of neuropathic pain state using von Frey hairs were as the same as described for Example 1. The PWT was assessed in the morning for 3 consecutive days prior to the surgery and on days 6, 14, 15 and 16 after surgery. Starting from day 16, the animals were either dosed with vehicle (5% DMSO in saline, 1 ml/kg) or Compound 130 mg/kg p.o., twice a day for 7 days. From day 16 onward, PWT was assessed thereafter every morning and 4 hours after dosing, up to day 23 post surgery.

[6] = system: rats with diabetic neuropathy; assay: PWT in rats with streptozotocin-induced diabetic neuropathy; type: in vivo, rat
Experimental: Under isofluorane anaesthesia, adult male Sprague-Dawley rats (150-200 g) were given an intraperitoneal injection of streptozotocin (75 mg/kg, Calbiochem). After injection, particular care was taken to ensure that water and food were available at all time and the beddings were changed frequently. A week after streptozocin injection, the blood glucose content was examined using Advantage II with Accutech strips (Roche). Only rats with blood glucose higher than 12 mM/L (216 mg/DL) were chosen for behavioural study. The assessment of neuropathic pain state using von Frey hairs was the same as described for Example 1. Rats with lowered PWT (<4 g) were used for either vehicle (1 ml/kg, p.o. or Compound 1 (1, 3, 10, and 30 mg/kg p.o.) dosing. The PWT was reassessed at 1, 2, 3, 4 and 6 hours after oral dosing.

[7] = system: rat Brennan model of surgical pain; assay: PWT in the rat Brennan model of surgical pain; type: in vivo
Experimental: The surgical pain model was prepared as described by Brennan et al (1996). Briefly, the rat was anaesthetised with 5% isofluorane in oxygen (2 L/min) for induction followed by an intravenous injection of sodium pentobarbitone (50 mg/kg) prior to surgery. The surgery was carried out under aseptic routines. The left hind paw was sterilized with 75% ethanol solution. A 1.5 cm longitudinal incision was made with a scalpel from about 0.5 cm of the heel edge towards the toes. The plantaris muscle and fascia were elevated and incised longitudinally but the structure of these tissues kept intact. After complete hemostasis with pressure, the skin was closed with stitches of 5-0 suture silk. The animal was routinely given an intraperitoneal injection of Amoxipen 15 mg/kg for prevention of infection after surgery. After surgery, the animals were placed in a temperature-controlled recovering chamber until full return of conscience and voluntary movement, before being returned to their home cages.

[8] = system: mice with autoimmune neuropathy; details: preclinical studies; cited from earlier work
[9] = system: lipopolysaccharide-induced polyclonal antibody responses; details: preclinical studies; cited from earlier work
[10] = CCI rats after chronic treatment
[11] = doses higher than 3 mg/kg p.o., dose-dependent

## O=C1N=C2SCCN2C(=O)C1Cc1ccc(Cl)cc1 (stereo not shown) [Compound 1, 6-(p-chlorobenzyl)-5H-2,3,6,7-tetrahydro-5,7-dioxothiazolo[3,2-a]pyrimidine]
CCI rats [1]
  duration of the effect on PWT: > 6 h
CCI rats [1]; 2 hours after dosing, P<0.05 vs vehicle
  paw withdrawal threshold (PWT): 2.6 ± 0.7 g
CCI rats [1]; 3 hours after dosing, P<0.01 vs vehicle
  paw withdrawal threshold (PWT): 3.0 ± 0.7 g
CCI rats [1]; 4 hours after dosing, P<0.001 vs vehicle
  paw withdrawal threshold (PWT): 6.3 ± 0.8 g
CCI rats [1]; 6 hours after dosing, P<0.001 vs pre-dosing control
  paw withdrawal threshold (PWT): 4.0 ± 0.5 g
CCI rats [2]
  effect on PWT: dose-dependently increased the PWT
[3]; first CCI preparation, 5 mg/kg i.v., reduced from 682 imps/min
  ectopic discharge after injection: 426 imps/min
[3]; four fibres, after administration, P<0.01
  firing rate of ectopic discharge, % of control: 57.1±9.0 % of control
[3]; four fibres, before drug 489.7±125.8 imps/min, P<0.01
  average firing rate of ectopic discharge after administration: 307.6±113.4 imps/min
[3]; second CCI preparation, iv injection, reduced from 298 imps/min
  ectopic discharge after injection: 104 imps/min
[4]; 4 CCI rats, after 8 days of treatment p.o. twice a day
  PWT compared with vehicle-treated: significantly higher
[4]; [10]
  averaged frequency of spontaneous activity: 888.9 ± 148.5 min⁻¹
  comparison of averaged frequency of spontaneous activity with vehicle group: failed to reveal significant difference
[4]; among 633 fibres recorded from 4 treated rats (vehicle 197 of 602)
  fibres with spontaneous activity: 48 fibres
[4]; chronic treatment of CCI rats, vs vehicle, P<0.001 χ2 test
  proportions of fibres with spontaneous activity: significantly reduced
CCI rats [5]; after the first day's treatment and throughout the 7 day dosing period, p.o. twice a day
  baseline PWT compared with vehicle group: higher than that observed in the vehicle group
CCI rats [5]; on repeat dosing
  time for which CCI-induced mechanical allodynia is alleviated post-dose: 12 h
CCI rats [5]; over 7 days of treatment
  loss of efficacy in reversing lowered PWT: no significant loss of efficacy
[6]; 1 mg/kg p.o.
  changes in PWT: Neither vehicle or Compound 1 at 1 mg/kg produced significant changes in PWT
[6]; [11]
  changes in PWT: significantly increased the PWT
[7]
  time after dosing at which the effect on PWT was first observed: 4 h
  time after dosing up to which the effect on PWT lasted: up to 8 hours
[7]; 3 mg/kg, n=7, P>0.05
  changes in PWT: Neither vehicle (n=8) or Compound 1 at 3 mg/kg (n=7) produced significant changes in PWT
[7]; 10 mg/kg
  analgesic effect after 6 hours: had gone
[7]; 10 mg/kg, at 4 hours, from control level 1.50±0.36 g, P<0.05
  PWT: 2.60 ± 0.48 g
[7]; 30 mg/kg, 6 hours post-dose, P<0.001 vs vehicle
  PWT: 5.28 ± 0.66 g
[7]; 30 mg/kg, 8 hours post-dose, P<0.001 vs vehicle
  PWT: 4.16 ± 0.79 g
[7]; 30 mg/kg, at 4 hours, from control level 1.82±3.8 g, P<0.001
  PWT: 3.80 ± 0.44 g
[7]; [11]
  changes in PWT: significantly increased the PWT
[8]
  kidney function: restored kidney function
[9]
  lipopolysaccharide-induced polyclonal antibody responses: inhibited
